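How tested: cells in 96-well plates exposed to compound for 48 hours at five concentrations. GI50: concentration for 50% inhibition of growth. Definition used: TGI = concentration required for complete inhibition of growth.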
Columns and labels:
Assay in all cases: growth of human tumour cells (NCI), 48 h
HCC-2998 colon = system: HCC-2998 colon
NCI-H226 lung = system: NCI-H226 lung
UACC-257 melanoma = system: UACC-257 melanoma
OVCAR-5 ovarian = system: OVCAR-5 ovarian
HOP-92 NSCLC = system: HOP-92 NSCLC
K-562 leukemia = system: K-562 leukemia
SF-268 CNS = system: SF-268 CNS
SF-539 CNS = system: SF-539 CNS
EKVX NSCLC = system: EKVX NSCLC
SK-MEL-28 melanoma = system: SK-MEL-28 melanoma
HCT-116 colon = system: HCT-116 colon
OVCAR-3 ovarian = system: OVCAR-3 ovarian
TK-10 renal = system: TK-10 renal
NCI-H23 lung = system: NCI-H23 lung
RXF 393 renal = system: RXF 393 renal
MALME-3M melanoma = system: MALME-3M melanoma
NCI-H522 lung = system: NCI-H522 lung
NCI-H460 lung = system: NCI-H460 lung
HT29 colon = system: HT29 colon
UACC-62 melanoma = system: UACC-62 melanoma
A498 renal = system: A498 renal
SK-MEL-2 melanoma = system: SK-MEL-2 melanoma
HL-60(TB) leukemia = system: HL-60(TB) leukemia
CCRF-CEM leukemia = system: CCRF-CEM leukemia
SR leukemia = system: SR leukemia
SF-295 CNS = system: SF-295 CNS
A549 NSCLC = system: A549 NSCLC
HOP-62 NSCLC = system: HOP-62 NSCLC
HOP-18 NSCLC = system: HOP-18 NSCLC
ACHN renal = system: ACHN renal
786-0 renal = system: 786-0 renal
LXFL 529 NSCLC = system: LXFL 529 NSCLC
SK-MEL-5 melanoma = system: SK-MEL-5 melanoma
RPMI-8226 leukemia = system: RPMI-8226 leukemia
OVCAR-4 ovarian = system: OVCAR-4 ovarian
HCT-15 colon = system: HCT-15 colon
OVCAR-8 ovarian = system: OVCAR-8 ovarian
SK-OV-3 ovarian = system: SK-OV-3 ovarian
DLD-1 colon = system: DLD-1 colon
COLO 205 colon = system: COLO 205 colon
SNB-78 CNS = system: SNB-78 CNS
DMS 273 small cell lung = system: DMS 273 small cell lung
SNB-75 CNS = system: SNB-75 CNS
U251 CNS = system: U251 CNS
KM20L2 colon = system: KM20L2 colon
SN12C renal = system: SN12C renal
KM12 colon = system: KM12 colon
CAKI-1 renal = system: CAKI-1 renal
MOLT-4 leukemia = system: MOLT-4 leukemia
SNB-19 CNS = system: SNB-19 CNS
LOX IMVI melanoma = system: LOX IMVI melanoma
UO-31 renal = system: UO-31 renal
IGROV1 ovarian = system: IGROV1 ovarian
SW-620 colon = system: SW-620 colon
M14 melanoma = system: M14 melanoma

N.N.NCCCCCCN.O=C([O-])CC(=O)[O-].O=C([O-])CC(=O)[O-].[Pt+4].[Pt+4]
GI50 (HCC-2998 colon): > 100 µM | TGI (HCC-2998 colon): > 100 µM | GI50 (NCI-H226 lung): > 56.7 µM | TGI (NCI-H226 lung): > 100 µM | GI50 (UACC-257 melanoma): > 100 µM | TGI (UACC-257 melanoma): > 100 µM | GI50 (OVCAR-5 ovarian): > 100 µM | TGI (OVCAR-5 ovarian): > 100 µM | GI50 (HOP-92 NSCLC): > 100 µM | TGI (HOP-92 NSCLC): > 100 µM | GI50 (K-562 leukemia): > 86.3 µM | TGI (K-562 leukemia): > 100 µM | GI50 (SF-268 CNS): 28.9 µM | TGI (SF-268 CNS): > 100 µM | GI50 (SF-539 CNS): 73.9 µM | TGI (SF-539 CNS): > 100 µM | GI50 (EKVX NSCLC): > 100 µM | TGI (EKVX NSCLC): > 100 µM | GI50 (SK-MEL-28 melanoma): > 100 µM | TGI (SK-MEL-28 melanoma): > 100 µM | GI50 (HCT-116 colon): > 100 µM | TGI (HCT-116 colon): > 100 µM | GI50 (OVCAR-3 ovarian): > 89.7 µM | TGI (OVCAR-3 ovarian): > 100 µM | GI50 (TK-10 renal): > 100 µM | TGI (TK-10 renal): > 100 µM | GI50 (NCI-H23 lung): 57.3 µM | TGI (NCI-H23 lung): > 100 µM | GI50 (RXF 393 renal): > 41.4 µM | TGI (RXF 393 renal): > 100 µM | GI50 (MALME-3M melanoma): > 100 µM | TGI (MALME-3M melanoma): > 100 µM | GI50 (NCI-H522 lung): 29 µM | TGI (NCI-H522 lung): > 100 µM | GI50 (NCI-H460 lung): 6.59 µM | TGI (NCI-H460 lung): > 100 µM | GI50 (HT29 colon): 62.5 µM | TGI (HT29 colon): > 100 µM | GI50 (UACC-62 melanoma): 10.5 µM | TGI (UACC-62 melanoma): > 100 µM | GI50 (A498 renal): > 100 µM | TGI (A498 renal): > 100 µM | GI50 (SK-MEL-2 melanoma): > 100 µM | TGI (SK-MEL-2 melanoma): > 100 µM | GI50 (HL-60(TB) leukemia): 23.7 µM | TGI (HL-60(TB) leukemia): > 100 µM | GI50 (CCRF-CEM leukemia): 15.6 µM | TGI (CCRF-CEM leukemia): > 100 µM | GI50 (SR leukemia): > 41.9 µM | TGI (SR leukemia): > 100 µM | GI50 (SF-295 CNS): > 71.6 µM | TGI (SF-295 CNS): > 100 µM | GI50 (A549 NSCLC): > 100 µM | TGI (A549 NSCLC): > 100 µM | GI50 (HOP-62 NSCLC): 38.7 µM | TGI (HOP-62 NSCLC): > 100 µM | GI50 (HOP-18 NSCLC): > 100 µM | TGI (HOP-18 NSCLC): > 100 µM | GI50 (ACHN renal): 36.1 µM | TGI (ACHN renal): > 100 µM | GI50 (786-0 renal): 65.7 µM | TGI (786-0 renal): > 100 µM | GI50 (LXFL 529 NSCLC): > 100 µM | TGI (LXFL 529 NSCLC): > 100 µM | GI50 (SK-MEL-5 melanoma): > 100 µM | TGI (SK-MEL-5 melanoma): > 100 µM | GI50 (RPMI-8226 leukemia): > 100 µM | TGI (RPMI-8226 leukemia): > 100 µM | GI50 (OVCAR-4 ovarian): > 78.5 µM | TGI (OVCAR-4 ovarian): > 100 µM | GI50 (HCT-15 colon): > 66.1 µM | TGI (HCT-15 colon): > 100 µM | GI50 (OVCAR-8 ovarian): > 100 µM | TGI (OVCAR-8 ovarian): > 100 µM | GI50 (SK-OV-3 ovarian): > 100 µM | TGI (SK-OV-3 ovarian): > 100 µM | GI50 (DLD-1 colon): > 100 µM | TGI (DLD-1 colon): > 100 µM | GI50 (COLO 205 colon): 27.7 µM | TGI (COLO 205 colon): > 100 µM | GI50 (SNB-78 CNS): > 100 µM | TGI (SNB-78 CNS): > 100 µM | GI50 (DMS 273 small cell lung): 40.8 µM | TGI (DMS 273 small cell lung): > 100 µM | GI50 (SNB-75 CNS): 38.7 µM | TGI (SNB-75 CNS): > 100 µM | GI50 (U251 CNS): 47.7 µM | TGI (U251 CNS): > 100 µM | GI50 (KM20L2 colon): > 100 µM | TGI (KM20L2 colon): > 100 µM | GI50 (SN12C renal): 14.5 µM | TGI (SN12C renal): > 100 µM | GI50 (KM12 colon): > 100 µM | TGI (KM12 colon): > 100 µM | GI50 (CAKI-1 renal): 26.6 µM | TGI (CAKI-1 renal): > 100 µM | GI50 (MOLT-4 leukemia): 5.2 µM | TGI (MOLT-4 leukemia): > 100 µM | GI50 (SNB-19 CNS): > 72.1 µM | TGI (SNB-19 CNS): > 100 µM | GI50 (LOX IMVI melanoma): > 100 µM | TGI (LOX IMVI melanoma): > 100 µM | GI50 (UO-31 renal): > 100 µM | TGI (UO-31 renal): > 100 µM | GI50 (IGROV1 ovarian): > 100 µM | TGI (IGROV1 ovarian): > 100 µM | GI50 (SW-620 colon): > 38 µM | TGI (SW-620 colon): > 58.7 µM | GI50 (M14 melanoma): > 86.7 µM | TGI (M14 melanoma): > 100 µM
